# Reference: US7790474B1, “p53 modulators” (Schering Corporation, priority 2005, dated 2010)
# Test system: GST-p53 DNA binding domain (aa 92-aa 312)
# Experiment: Scintillation Proximity Assay (displacement of 3H-labeled p53 binder)
# Details: percentage of 3H-labeled ligand remaining bound, number in brackets = average of n
# Method: [drawing 38] (^3H at C bearing the chlorophenyl groups and the piperazinyl group), a radiolabeled small molecule which binds to p53, and the GST-p53 DNA binding domain (aa 92-aa 312), a quantitative screening assay was used to determine if various molecules comprise p53 binding activity. The assay is based on Scintillation Proximity Assay (SPA) technology. The complex of GST-p53,
# [drawing 39] and Glutathione-SPA beads (Amersham Biosciences) were incubated with mixing for 1 hour at room temperature in the presence of the compounds to be screened. The signal was read on a Microbeta.
# The numerical values expressed refer to the percentage of labeled
# [drawing 40] remaining bound to the mutant p53 protein after exposure to the indicated compound.
row,SMILES,SPA ASSAY % Residual T @ 2 ug/mL of drug (Average of)
1,O=c1[nH]c2ccccc2n1C1CCN(c2nc(CN3CCN(C(c4ccc(Cl)cc4)c4ccc(Cl)cc4)CC3)nc3ccccc23)CC1 [Formula 18],47.9%
2,CCN(CC)C(=O)C1CCCN(c2nc(CN3CCN(C(c4ccc(Cl)cc4)c4ccc(Cl)cc4)CC3)nc3ccccc23)C1 (stereo not drawn) [Formula 49],65.7%
3,CN(Cc1ccccc1)c1nc(CN2CCN(C(c3ccc(Cl)cc3)c3ccc(Cl)cc3)CC2)nc2ccccc12 [Formula 43],80.7%
4,CN(C)CCCNc1nc(CN(C)Cc2cccc3cc[nH]c23)nc2ccccc12 [Formula 77],25.7%
5,CN(C)CCCNc1nc(CN2CCN(C(c3ccccc3)c3ccc(OC(F)(F)F)cc3)CC2)nc2ccccc12 (stereo not drawn) [Formula 10],46.1%
6,CN(C)CCCNc1nc(CN(Cc2ccccc2)Cc2ccccc2)nc2ccccc12 [Formula 113],61.7%
7,COC(=O)[C@@H](Nc1nc(CNC(=O)Nc2cc(Cl)cc(Cl)c2)nc2ccccc12)C(C)C [Formula 56],52.3%
8,COC(=O)[C@@H](Nc1nc(CNC(=O)Nc2ccccc2-c2ccccc2)nc2ccccc12)C(C)C [Formula 57],52.7%
9,COc1ccc(Cl)cc1NC(=O)N(C)Cc1nc(NCCCN(C)C)c2ccccc2n1 [Formula 112],48.4%
10,CN(C)CCCNc1nc(CN(C)Cc2cccc(C(F)(F)F)c2)nc2ccccc12 [Formula 85],48.4 (3) %
11,CN(C)CCCNc1nc(CN2CCN(C(c3ccc(Cl)cc3)c3ccc(Cl)cc3)CC2)nc2ccccc12 [Formula 8],16.1%
12,CN(C)CCCOc1nc(CN2CCN(C(c3ccc(Cl)cc3)c3ccc(Cl)cc3)CC2)nc2ccccc12 [Formula 37],77.0%
13,Cc1cc(C)c(NC(=O)N2CCN(Cc3nc(NCCCN(C)C)c4ccccc4n3)CC2)c(C)c1 [Formula 39],53.0%
14,Clc1ccc(C(c2ccc(Cl)cc2)N2CCN(Cc3nc(N4CCOCC4)c4ccccc4n3)CC2)cc1 [Formula 41],63.1%
15,COc1ccc(Cl)cc1NC(=O)NCc1nc(N[C@H](C(N)=O)C(C)C)c2ccccc2n1 [Formula 60],60.0%
16,COC(=O)[C@@H](Nc1nc(CN2CCN(C(=O)NC(c3ccccc3)c3ccccc3)CC2)nc2ccccc12)C(C)C [Formula 12],45.6%
17,CN(C)CCCNc1nc(CN(C)Cc2cccc3c2OCO3)nc2ccccc12 [Formula 81],46.8%

# Continued, values first:
row,SPA ASSAY % Residual T @ 2 ug/mL of drug (Average of),SMILES
1,52.7%,CN(C)CCCNc1nc(CN(C)Cc2ccccc2C#N)nc2ccccc12 [Formula 68]
2,50.0 (3) %,CCC(C)CN(C)Cc1nc(NCCCN(C)C)c2ccccc2n1 (stereo not drawn) [Formula 62]
3,7.8 (2) %,CN(C)CCCNc1nc(CN(C)C2CCC(C(C)(C)C)CC2)nc2ccccc12 (stereo not drawn) [Formula 103]
4,57.0%,CN(C)CCCNc1nc(CN(C)CC2CCCCC2)nc2ccccc12 [Formula 111]
5,6.3 (2) %,CCC(C)(C)C1CCC(N(C)Cc2nc(NCCCN(C)C)c3ccccc3n2)CC1 (stereo not drawn) [Formula 107]
6,54.1%,CN(C)CCCNc1nc(CN(C)Cc2ccc(C#N)cc2)nc2ccccc12 [Formula 70]
7,45.0 (3) %,CN(C)CCCNc1nc(CN(C)C2CCSC2)nc2ccccc12 (stereo not drawn) [Formula 97]
8,37.0 (3) %,CN(C)CCCNc1nc(CN(C)Cc2nccs2)nc2ccccc12 [Formula 66]
9,50.9%,CN(C)CCCNc1nc(CN(C)Cc2cccc(C#N)c2)nc2ccccc12 [Formula 69]
10,52.7%,CN(C)CCCNc1nc(CN(C)Cc2ccco2)nc2ccccc12 [Formula 63]
